Like-named read-outs stand apart in the source and are kept apart here.
How the values were obtained:
[1] = system: HBV genotype D; experiment: Anti-HBV activity in HepG2.2.15 cells (extracellular HBV DNA by qPCR); assay type: cell-based; details: Hepatitis B virus
Procedure: ATI-2173 was obtained from WuXi SynTheAll. Entecavir (positive control) was obtained from Shanghai Titan Scientific Co., Ltd. HepG2.2.15 cells (derived from human hepatoblastoma cell-like HepG2) contain four 5′ to 3′ tandem copies of the HBV genotype D and were provided by WuXi. HepG2.2.15 cells were cultured in Dulbecco’s modified Eagle medium (DMEM)/F12 (Invitrogen, 11330032) supplemented with 2% fetal bovine serum (FBS) (HyClone, SV30087.03), 1% L-glutamine, 1% minimum essential medium (MEM) nonessential amino acid solution (NEAA), and 1% penicillin-streptomycin solution. QIAamp 96 DNA blood kit was purchased from Qiagen (51162). […] Culture medium containing ATI-2173 or entecavir (serially diluted) was added to cells on day 2 and refreshed on day 5. ATI-2173 dilutions were: 0.0006, 0.0024, 0.0098, 0.0391, 0.1563, 0.6250, 2.5000, and 10.0000 μM. On day 8, cell culture supernatants were collected and DNA was extracted by the QIAamp 96 DNA blood kit. qPCR was run at 95°C for 10 min, then cycled at 95°C for 15 s, 60°C for 1 min, for a total of 40 cycles. HBV DNA content in the samples was calculated according to the standard curve and CT (cycle threshold of qPCR) values of a sample. Data were normalized for maximum and minimum copy numbers.

[2] = system: HBV; set-up: method as in PMID 8834884, PMID 7786007, PMID 20516559; details: cell-based in vitro systems; read-out: Anti-HBV EC50; cited from earlier work
[3] = in vivo, po; cited from earlier work
[4] = in vitro; details: human
Procedure: HK-2 human kidney cells were obtained from ATCC (Manassas, VA) and cultured in Gibco Keratinocyte serum-free medium (Thermo Fisher Scientific, Waltham, MA) supplemented with 10% FBS (Peak Serum, Wellington, CO). Human skeletal muscle cells were obtained from Lonza (Walkersville, MD) and cultured in SkGM-2 skeletal muscle cell growth medium-2 (Lonza). Both HK-2 and skeletal muscle cells were cultured humidified at 37°C and 5% CO2. Cryopreserved human primary hepatocytes and medium were received from Lonza. Cryopreserved iCell cardiomyocytes and cardiomyocyte medium were purchased from Stem Cell Technologies (Vancouver, BC, Canada). Cryopreserved human bone marrow mononuclear cells were purchased from Lonza with HemaTox Myeloid medium purchased from [sequence] […] All cryopreserved cells (human primary hepatocytes, iCell cardiomyocytes, and human bone marrow mononuclear cells) were stored in vapor phase liquid nitrogen until the day of plating. […] Serial dilutions of compounds in DMSO were as follows: 100, 10, 1, 0.1, 0.01, 0.001, 0.0001, and 0.00001 μM (final concentration of DMSO in medium was 0.5%).
HK-2 and skeletal muscle cells were seeded into 96-well plates at 5,000 cells/well and incubated overnight at 37°C and 5% CO2. Human hepatocytes were thawed, diluted in hepatocyte plating medium (Lonza) and seeded into a 96-well, collagen-coated plates at 2.5 × 10^4 cells/well. Hepatocytes were incubated for 6 h at 37°C in 5% CO2, then the medium was aspirated and replaced with hepatocyte culture medium at 50 μl/well, and finally incubated overnight. The iCell cardiomyocytes were thawed, suspended in iCell thawing/plating medium, and plated at 4 × 10^4 cells/well in a gelatin-coated 96-well plate. iCells were incubated for 2 days at 37°C in 7% CO2. […]
Following incubation, cells were dosed and incubated for 72 h at 37°C and 5% CO2. Following incubation, the endpoint cell viability CellTiter-Glo 2.0 assay (Promega, San Luis Obispo, CA) was performed and luminescence data collected on a Synergy 4 plate reader (Biotek, Winooski, VT). […]

[5] = Cell viability (CC50) in HepG2.2.15 cells; details: human
[6] = human, in vivo; cited from earlier work
[7] = system: HBV DNA; set-up: method as in PMID 15239097; details: patients, for 6 months following treatment; cited from earlier work
[8] = system: HBV wild type (U95551); experiment: Cross-resistance in transfected HepG2 cells, wild type; assay type: cell-based, Hepatitis B virus
[9] = system: HBV coreT33N; experiment: microbe, parasite or virus in culture; assay type: cell-based, Hepatitis B virus; details: HepG2 cells, mutation coreT33N; read-out: EC50
[10] = system: clevudine-resistant mutants; details: mutants from viral break-through patients, predominantly M204I; cited from earlier work
[11] = system: HBV genotypes A, B, C, D, E, F, G, and H; experiment: microbe, parasite or virus in culture; assay type: cell-based; details: Hepatitis B virus, HepG2, read-out: IC50s, inhibition of HBV DNA across genotypes
[12] = system: HBV rtS202G+M204I; experiment: microbe, parasite or virus in culture; assay type: cell-based; details: Hepatitis B virus, HepG2
[13] = system: HBV; experiment: HBV combination studies with ATI-2173 in primary human hepatocytes (MacSynergy); assay type: cell-based, Hepatitis B virus; details: compound combined with ATI-2173, primary human hepatocytes; for Combination index: MacSynergy
[14] = system: HBV rtS202G+M204I+M250V; experiment: microbe, parasite or virus in culture; assay type: cell-based; details: Hepatitis B virus, HepG2
[15] = system: HBV rtM204V; experiment: microbe, parasite or virus in culture; assay type: cell-based; details: Hepatitis B virus, HepG2
[16] = system: HBV rtA181V; experiment: microbe, parasite or virus in culture; assay type: cell-based; details: Hepatitis B virus, HepG2
[17] = system: HBV rtL180M+M204V; experiment: microbe, parasite or virus in culture; assay type: cell-based; details: Hepatitis B virus, HepG2
[18] = system: HBV rtM204I; experiment: microbe, parasite or virus in culture; assay type: cell-based; details: Hepatitis B virus, HepG2
[19] = system: HBV rtN236T; experiment: microbe, parasite or virus in culture; assay type: cell-based; details: Hepatitis B virus, HepG2
[20] = system: HBV rtV173L+M204I; experiment: microbe, parasite or virus in culture; assay type: cell-based; details: Hepatitis B virus, HepG2
[21] = system: HBV coreP25A; experiment: microbe, parasite or virus in culture; assay type: cell-based, Hepatitis B virus; details: HepG2 cells, mutation coreP25A; read-out: EC50

For `Cc1cn([C@H]2O[C@@H](CO)[C@H](O)[C@H]2F)c(=O)[nH]c1=O` [Clevudine, 1-(2-fluoro-5-methyl-β,L-arabinofuranosyl) uracil], the EC50 ([1]; HepG2.2.15, read-out: EC50, extracellular HBV DNA) is given as 100 nM, the EC50 [2] is given as ~100 nM and the “Plasma concentrations at effective doses” value [3] is given as “up to 1 μM”. For the same compound, the CC50 at 72 h [4] was > 100 µM, the CC50 ([5]; HepG2.2.15 cells) was > 10 µM and the “Myopathy on long-term exposure” value [6] was “reversible proximal myopathy symptoms emerged”. For the same compound, the “Sustained viral suppression, reduction from baseline” value [7] was ~2 log10.
For `COc1ccccc1/C(Br)=C(\NC(=O)c1ccc([N+](=O)[O-])cc1)C(=O)N1CCCCC1` [AT-130], the EC50 [8] was 246 nM and the EC50 [9] was > 10 µM.
In the case of `C=C1[C@H](CO)[C@@H](O)C[C@@H]1n1cnc2c(=O)[nH]c(N)nc21` [Entecavir], the EC50 ([1]; HepG2.2.15 cells, control compound, read-out: EC50, extracellular HBV DNA) is listed as 0.6 nM, the “Activity against clevudine-resistant mutants” value [10] is listed as “not” and the IC50 [11] is listed as 0.5 to 2.2 nM. For the same compound, the EC50 [12] was 9.96 µM, the Combination effect [13] was “Minor synergism (25 to 50 is considered minor synergism)” and the Combination index [13] was 38.62. The EC50 ([8]; Hepatitis B virus) was 3 nM, the EC50 [14] was 21 µM and the CC50 [5] was > 0.05 µM.
With `Nc1ccn([C@@H]2CS[C@H](CO)O2)c(=O)n1` [Lamivudine, reference compound] the EC50 [15] was 3.51 µM, the EC50 [16] was 210 nM and the EC50 [17] was > 10 µM. The Combination effect [13] was “Additive (A combination index of <25 is considered additive)”, the Combination index [13] was −5.86 and the EC50 [18] was > 10 µM. The EC50 ([8]; Hepatitis B virus) was 96 nM, the EC50 [19] was 130 nM and the EC50 [20] was > 10 µM.
For `Nc1ncnc2c1ncn2CCOCP(=O)(O)O` [Adefovir], the Combination effect [13] was “Minor synergism (25 to 50 is considered minor synergism)” and the Combination index [13] was 32.85.
For `C[C@H](Cn1cnc2c(N)ncnc21)OCP(=O)(O)O` [Tenofovir], the “Activity against clevudine-resistant mutants” value [10] is listed as “active”, the Combination effect [13] is listed as “Additive (A combination index of <25 is considered additive)” and the Combination index [13] is listed as 8.56.
For `CCOC(=O)C1=C(CN2CCOCC2)NC(c2nccs2)=NC1c1ccc(F)cc1Br` (stereo not shown) [GLS4], the Combination effect [13] was “Additive (A combination index of <25 is considered additive)”, the Combination index [13] was 7.59 and the EC50 [8] was 15 nM. It also gave an EC50 [21] of 295 nM and an EC50 [9] of 3.08 µM.
